From patent US8552002B2 (Novartis AG, priority 2004, dated 2013)

Legend:
Format in all cases: biochemical
[1] = biological target: T1, Tek (Homo sapiens, UniProt Q02763); test: Recombinant GST-Tek (Tie-2) tyrosine kinase assay (33P into poly(Glu,Tyr)); conditions: Examples 1 to 169
T1 construct: amino acids 773-1124 of the cytoplasmic kinase domain of human Tek, N-terminally fused to GST; made in house; host or cells: Sf9 insect cells (baculovirus)
Description: (Tie-2/Tek): The baculovirus donor vector pFbacG01 was used to generate a recombinant baculovirus that expressed the amino acid region amino acids 773-1124 of the cytoplasmic kinase domain of human Tek, N-terminally fused to GST (Provided by Dr. Marmé, Institute of Molecular Medicine, Freiburg, Germany based on a Research Collaboration). Tek was recloned into the pFbacG01 transfer vector by EcoRI excision and ligation into EcoRI digested pFbacG01 (FBG-Tie2/Tek).
Production of virus: Transfer vectors containing the kinase domains were transfected into the DH10Bac cell line (GIBCO) and plated on selective agar plates. Colonies without insertion of the fusion sequence into the viral genome (carried by the bacteria) are blue. Single white colonies were picked and viral DNA (bacmid) isolated from the bacteria by standard plasmid purification procedures. Sf9 cells or Sf21 cells were then transfected in 25 cm^2 flasks with the viral DNA using Cellfectin reagent.
Determination of small scale protein expression in Sf9 cells: Virus containing media was collected from the transfected cell culture and used for infection to increase its titer. Virus containing media obtained after two rounds of infection was used for large-scale protein expression. For large-scale protein expression 100 cm^2 round tissue culture plates were seeded with 5×10^7 cells/plate and infected with 1 mL of virus-containing media (approx. 5 MOIs). After 3 days the cells were scraped off the plate and centrifuged at 500 rpm for 5 min. Cell pellets from 10-20, 100 cm^2 plates, were resuspended in 50 mL of ice-cold lysis buffer (25 mMTris-HCl, pH7.5, 2 mMEDTA, 1% NP-40, 1 mM DTT, 1 mMP MSF). The cells were stirred on ice for 15 min and then centrifuged at 5000 rpms for 20 min.
Purification of GST-tagged proteins: The centrifuged cell lysate was loaded onto a 2 mL glutathione-sepharose column and washed three times with 10 mL of 25 mM Tris-HCl, pH 7.5, 2 mM EDTA, 1 mM DTT, 200 mM NaCl. The GST-tagged proteins were then eluted by 10 applications (1 mL each) of 25 mM Tris-HCl, pH 7.5, 10 mM reduced-glutathione, 100 mM NaCl, 1 mM DTT, 10% Glycerol and stored at −70° C.
Measure of enzyme activity: Tyrosine protein kinase assays with either purified GST-Ret, GST-Tek or GST-FGFR-3-K650E were carried out in a final volume of 30 μL with final concentrations of the following components: Ret included 15 ng of GST-Ret, 20 mM Tris-HCl, pH 7.5, 1 mM MnCl2, 10 mM MgCl2, 1 mM DTT, 3 μg/mL poly(Glu,Tyr) 4:1, 1% DMSO and 2.0 μM ATP (γ-[^33P]-ATP 0.1 μCi). Tek included 150 ng of GST-Tek, 20 mM Tris-HCl, pH 7.5, 3 mM MnCl2, 3 mM MgCl2, 1 mM DTT, 0.01 mM Na3VO4, 250 μg/mL PEG 20'000, 10 μg/mL poly(Glu,Tyr) 4:1, 1% DMSO and 4.0 μM ATP (γ-[^33P]-ATP 0.1 μCi). FGFR-3-K650E included 10 ng of GST-FGFR-3-K650E, 20 mM Tris-HCl, pH 7.5, 3 mM MnCl2, 3 mM MgCl2, 1 mM DTT, […], 10 μg/mL poly(Glu,Tyr) 4:1, 1% DMSO and 4.0 μM ATP (γ-[^33P]-ATP 0.1 μCi).The activity was assayed in the presence or absence of inhibitors, by measuring the incorporation of ^33P from [γ^33P] ATP into poly(Glu,Tyr) 4:1. The assay was carried out in 96-well plates at ambient temperature for 30 min under conditions described below and terminated by the addition of 50 μL of 125 mM EDTA. Subsequently, 60 μL of the reaction mixture were transferred onto Immobilon-PVDF membrane (Millipore) previously soaked for 5 min with methanol, rinsed with water, then soaked for 5 min with 0.5% H3PO4 and mounted on vacuum manifold with disconnected vacuum source. After spotting all samples, vacuum was connected and each well rinsed with 200 μL 0.5% H3PO4. Membranes were removed and washed 4× on a shaker with 1.0% H3PO4, once with ethanol. Membranes were counted after drying at ambient temperature, mounting in Packard TopCount 96-well frame, and addition of 10 μL/well of Microscint™ (Packard). […]

[2] = biological target: T2, KDR (Homo sapiens, UniProt P35968); test: Inhibitory activity against KDR (VEGF-R2), in vitro data of Examples 170 and 207; conditions: 10 μM; Examples 1 to 169; read-out: KDR inhibition at 10 μM
T2 construct: expressed in transfected cells; host or cells: CHO cells
Protocol: (Controls comprise medium without test compounds). After two hours of incubation at 37° C., recombinant VEGF is added; the final VEGF concentration is 20 ng/ml. After a further five minutes incubation at 37° C., the cells are washed twice with ice-cold PBS (phosphate-buffered saline) and immediately lysed in 100 μl lysis buffer per well. The lysates are then centrifuged to remove the cell nuclei, and the protein concentrations of the supernatants are determined using a commercial protein assay (BIORAD). The lysates can then either be immediately used or, if necessary, stored at −20° C. […] The plates are then washed and the remaining free protein-binding sites are saturated with 3% TopBlock® (Juro, Cat. # TB232010) in phosphate buffered saline with Tween 20® (polyoxyethylen(20)sorbitane monolaurate, ICI/Uniquema) (PBST). The cell lysates (20 μg protein per well) are then incubated in these plates overnight at 4° C. together with an antiphosphotyrosine antibody coupled with alkaline phosphatase (PY20:AP from Zymed). […] The luminescence is measured in a Packard Top Count Microplate Scintillation Counter.

[3] = biological target: T3, FGFR3 (K650E) (Homo sapiens, UniProt P22607, K650E); test: Recombinant GST-FGFR-3-K650E tyrosine kinase assay (33P into poly(Glu,Tyr)); conditions: 10 μM; Examples 1 to 169; read-out: FGFR3 (K650E) inhibition at 10 μM
T3 construct: amino acids 411-806 of the cytoplasmic domain of human FGFR-3, N-terminally fused to GST; made in house; host or cells: Sf9 insect cells (baculovirus)
T3 sequence (P22607 411-806 K650E): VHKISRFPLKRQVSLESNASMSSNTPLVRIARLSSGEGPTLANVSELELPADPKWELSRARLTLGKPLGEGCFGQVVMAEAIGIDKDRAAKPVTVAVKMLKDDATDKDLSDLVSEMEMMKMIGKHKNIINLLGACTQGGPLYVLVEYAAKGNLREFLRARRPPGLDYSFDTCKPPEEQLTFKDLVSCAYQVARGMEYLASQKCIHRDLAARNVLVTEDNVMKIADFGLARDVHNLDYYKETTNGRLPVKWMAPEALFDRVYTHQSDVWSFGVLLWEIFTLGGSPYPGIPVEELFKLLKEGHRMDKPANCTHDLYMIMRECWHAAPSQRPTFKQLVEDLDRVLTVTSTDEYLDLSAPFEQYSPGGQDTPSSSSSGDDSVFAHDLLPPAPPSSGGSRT

T1 sequence (Q02763 773-1124): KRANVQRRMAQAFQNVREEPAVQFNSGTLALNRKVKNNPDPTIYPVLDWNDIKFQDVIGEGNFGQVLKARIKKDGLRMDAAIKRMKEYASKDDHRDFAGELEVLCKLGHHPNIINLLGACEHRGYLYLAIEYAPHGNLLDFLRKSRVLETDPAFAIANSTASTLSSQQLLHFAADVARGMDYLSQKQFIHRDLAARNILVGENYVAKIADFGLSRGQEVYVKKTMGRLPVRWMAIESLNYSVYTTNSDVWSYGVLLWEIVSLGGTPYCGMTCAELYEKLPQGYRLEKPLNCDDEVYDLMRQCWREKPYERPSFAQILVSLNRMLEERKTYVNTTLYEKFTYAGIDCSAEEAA
T2 sequence (P35968 20-1356): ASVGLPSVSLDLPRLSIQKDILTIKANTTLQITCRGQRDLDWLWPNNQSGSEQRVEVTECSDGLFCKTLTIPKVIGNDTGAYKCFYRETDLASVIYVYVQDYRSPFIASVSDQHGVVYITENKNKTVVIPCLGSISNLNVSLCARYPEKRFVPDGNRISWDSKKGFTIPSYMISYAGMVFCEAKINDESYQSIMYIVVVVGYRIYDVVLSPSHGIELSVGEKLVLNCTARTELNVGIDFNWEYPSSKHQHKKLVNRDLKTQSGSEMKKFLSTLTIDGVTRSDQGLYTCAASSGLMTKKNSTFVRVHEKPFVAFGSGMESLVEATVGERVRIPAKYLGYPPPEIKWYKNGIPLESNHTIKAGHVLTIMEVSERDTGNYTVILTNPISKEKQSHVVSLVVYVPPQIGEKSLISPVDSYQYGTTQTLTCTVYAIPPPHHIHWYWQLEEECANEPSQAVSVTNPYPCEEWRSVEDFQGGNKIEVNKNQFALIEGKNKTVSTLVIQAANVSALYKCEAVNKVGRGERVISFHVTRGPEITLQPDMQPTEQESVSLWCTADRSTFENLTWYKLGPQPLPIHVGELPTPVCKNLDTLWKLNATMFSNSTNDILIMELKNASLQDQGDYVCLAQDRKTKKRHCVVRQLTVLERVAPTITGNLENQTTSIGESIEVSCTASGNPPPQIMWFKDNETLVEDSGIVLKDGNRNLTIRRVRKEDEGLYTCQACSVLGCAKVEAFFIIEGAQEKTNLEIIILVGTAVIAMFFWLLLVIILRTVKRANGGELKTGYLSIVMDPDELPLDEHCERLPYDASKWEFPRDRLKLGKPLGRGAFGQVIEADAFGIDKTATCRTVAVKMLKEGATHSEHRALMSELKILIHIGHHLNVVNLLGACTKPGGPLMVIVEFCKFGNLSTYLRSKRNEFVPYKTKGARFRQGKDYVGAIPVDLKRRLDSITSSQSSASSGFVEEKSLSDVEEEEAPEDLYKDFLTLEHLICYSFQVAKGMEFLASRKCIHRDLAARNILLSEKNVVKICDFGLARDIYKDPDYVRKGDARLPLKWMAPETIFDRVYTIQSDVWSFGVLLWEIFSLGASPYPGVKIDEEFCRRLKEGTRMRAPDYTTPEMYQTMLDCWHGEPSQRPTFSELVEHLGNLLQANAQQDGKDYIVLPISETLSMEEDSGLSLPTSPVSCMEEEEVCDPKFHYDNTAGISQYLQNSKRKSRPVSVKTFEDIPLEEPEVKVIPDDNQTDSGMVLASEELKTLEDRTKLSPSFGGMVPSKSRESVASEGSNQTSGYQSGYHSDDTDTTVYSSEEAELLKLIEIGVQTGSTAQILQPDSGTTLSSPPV

| inhibition at 10 µM [1] | inhibition at 10 µM [2] | inhibition at 10 µM [3] | SMILES |
| --- | --- | --- | --- |
| 12 to 100% | 67 to 100% | 27 to 100% | CCN(CC)CCCOc1ccc(N(C(=O)Nc2ccccc2Cl)c2cc(N)ncn2)cc1 [Example 95, 1-(6-Amino-pyrimidin-4-yl}-3-(2-chloro-phenyl)-1-[4-(3-diethylamino-propoxy)-phenyl]-urea] |
| 12 to 100% | 67 to 100% | 27 to 100% | COc1cc(NC(=O)Nc2cc(Nc3cccc(OCCN4CCOCC4)c3)ncn2)c(Cl)c(OC)c1 [Example 45, 1-(2-Chloro-3,5-dimethoxy-phenyl)-3-{6-[3-(2-morpholin-4-yl-ethoxy)-phenylamino]-pyrimidin-4-yl}-urea] |
| 12 to 100% | 67 to 100% | 27 to 100% | CCN1CCN(Cc2ccc(Nc3cc(N(C)C(=O)Nc4c(Cl)c(OC)cc(OC)c4Cl)ncn3)cc2)CC1 [Example 149, 3-(2,6-Dichloro-3,5-dimethoxy-phenyl)-1-{6-[4-(4-ethyl-piperazin-1-ylmethyl)-phenylamino]-pyrimidin-4-yl}-1-methyl-urea] |
| 12 to 100% | 67 to 100% | 27 to 100% | COc1cc(NC(=O)Nc2cc(Nc3cccc(OCCN(C)C)c3)ncn2)c(Cl)c(OC)c1 [Example 43, 1-(2-Chloro-3,5-dimethoxy-phenyl)-3-{6-[3-(2-dimethylamino-ethoxy)-phenylamino]-pyrimidin-4-yl}-urea] |
| 12 to 100% | 67 to 100% | 27 to 100% | CN1CCN(c2cccc(Nc3cc(NC(=O)Nc4cc(C(F)(F)F)cc(C(F)(F)F)c4)ncn3)c2)CC1 [Example 21, 1-(3,5-Bis-trifluoromethyl-phenyl)-3-{6-[3-(4-methyl-piperazin-1-yl)-phenylamino]-pyrimidin-4-yl}-urea] |
| 12 to 100% | 67 to 100% | 27 to 100% | O=C(Nc1cc(Nc2cccc(Cl)c2)ncn1)Nc1c(Cl)cccc1Cl [Example 137, 1-[6-(3-Chloro-phenylamino)-pyrimidin-4-yl]-3-(2,6-dichloro-Phenyl)-urea] |
| 12 to 100% | 67 to 100% | 27 to 100% | COc1ccc(Cl)c(NC(=O)N(C)c2cc(Nc3ccc(CN4CCN(C)CC4)cc3)ncn2)c1Cl [Example 62, 3-(2,6-Dichloro-3-methoxy-phenyl)-1-methyl-1-{6-[4-(4-methyl-piperazin-1-ylmethyl)-phenylamino]-pyrimidin-4-yl}-urea] |
| 12 to 100% | 67 to 100% | – | COc1cc(OC)c(Cl)c(NC(=O)N(C)c2cc(Nc3ccc(CCCN(C)C)cc3)ncn2)c1Cl [Example 147, 3-(2,6-Dichloro-3,5-dimethoxy-phenyl)-1-{6-[4-(3-dimethylamino-propyl)-phenylamino]-pyrimidin-4-yl}-1-methyl-urea] |
| 12 to 100% | 67 to 100% | – | COc1cc(NC(=O)Nc2cc(Nc3ccc(N4CCN(C)CC4)cc3)ncn2)c(Cl)c(OC)c1 [Example 40, 1-(2-Chloro-3,5-dimethoxy-phenyl)-3-{6-[4-(4-methyl-Piperazin-1-yl)-phenyl-amino]-pyrimidin-4-yl}-urea] |
| 12 to 100% | 67 to 100% | – | COc1cc(NC(=O)N(C)c2cc(Nc3ccc(N4CCN(C)CC4)cc3)ncn2)c(Cl)c(OC)c1 [Example 50, 3-(2-Chloro-3,5-dimethoxy-phenyl)-1-methyl-1-{6-[4-(4-methyl-piperazin-1-yl)-phenylamino]-pyrimidin-4-yl}-urea] |
| 12 to 100% | 67 to 100% | – | COc1cc(OC)c(Cl)c(NC(=O)N(C)c2cc(Nc3cccc(CN(C)C)c3)ncn2)c1Cl [Example 144, 3-(2,6-Dichloro-3,5-dimethoxy-phenyl)-1-[6-(3-dimethylaminomethyl-phenylamino)-pyrimidin-4-yl]-1-methyl-urea] |
| 12 to 100% | 67 to 100% | – | COc1cc(NC(=O)N(C)c2cc(Nc3ccc(N4CCN(C)CC4)cc3)ncn2)cc(OC)c1 [Example 47, 3-(3,5-Dimethoxy-phenyl)-1-methyl-1-{6-[4-(4-methyl-piperazin-1-yl)-phenylamino]-pyrimidin-4-yl}-urea] |
| 12 to 100% | 67 to 100% | – | COc1cc(OC)c(Cl)c(NC(=O)N(C)c2cc(Nc3ccc(OCCN4CCCC4)cc3)ncn2)c1Cl [Example 148, 3-(2,6-Dichloro-3,5-dimethoxy-phenyl)-1-methyl-1-{6-[4-(2-pyrrolidin-1-yl-ethoxy)-phenylamino]-pyrimidin-4-yl}-urea] |
| 12 to 100% | 67 to 100% | – | COc1ccc(Cl)c(NC(=O)Nc2cc(Nc3ccc(N4CCN(C)CC4)cc3)ncn2)c1 [Example 28, 1-(2-Chloro-5-methoxy-phenyl)-3-{6-[4-(4-methyl-piperazin-1-yl)-phenyl-amino]-pyrimidin-4-yl}-urea] |
| 12 to 100% | 67 to 100% | – | COc1cc(OC)c(Cl)c(NC(=O)N(C)c2cc(Nc3cccc(N4CCN(C)CC4)c3)ncn2)c1Cl [Example 3, 3-(2,6-Dichloro-3,5-dimethoxy-phenyl)-1-methyl-1-{6-[3-(4-methyl-piperazin-1-yl)-phenylamino]-pyrimidin-4-yl}-urea] |
| 12 to 100% | 67 to 100% | – | CCN(C(=O)Nc1cc(OC)cc(OC)c1Cl)c1cc(Nc2ccc(N3CCN(C)CC3)cc2)ncn1 [Example 55, 3-(2-Chloro-3,5-dimethoxy-phenyl)-1-ethyl-1-{6-[4-(4-methyl-piperazin-1-yl)-phenylamino]-pyrimidin-4-yl}-urea] |
| 12 to 100% | 67 to 100% | – | COc1ccc(Cl)c(NC(=O)Nc2cc(Nc3ccc(N4CCN(C)CC4)cc3)ncn2)c1Cl [Example 36, 1-(2,6-Dichloro-3-methoxy-phenyl)-3-{6-[4-(4-methyl-piperazin-1-yl)-phenyl-amino]-pyrimidin-4-yl}-urea] |
